Values of other authors as cited in patent US20240252546A1, “NEURITE OUTGROWTH PROMOTION KIT AND USE THEREFOR” (KEIO UNIVERSITY, priority 2021, published 2024).

What was measured:
[1] = tested on: nerve cells induced to differentiate from a neurosphere; settings: nerve cells from a neurosphere on which DAPT has been allowed to act; cited from earlier work
[2] = tested on: spinal cord injury in the chronic phase; settings: DAPT used on a neurosphere, neurosphere then transplanted into the site of injury; cited from earlier work

## C[C@H](NC(=O)Cc1cc(F)cc(F)c1)C(=O)N[C@H](C(=O)OC(C)(C)C)c1ccccc1 [DAPT]
[1]
  neurite outgrowth: promoted
  phosphorylation of p38 MAPK: increased
[2]
  treatment of spinal cord injury in the chronic phase: can be treated
